Reference: patent US8022091B2, “Triazole derivative” (Taisho Pharmaceutical Co., Ltd., priority 2006, dated 2011)

Legend:
human Edg-1 (S1P1) = target: T1, human Edg-1 (S1P1) (Homo sapiens, UniProt P21453); assay: S1P1 binding assay: inhibition of [33P]-S1P binding to membrane fraction of HEK-293 cells transferred with the human Edg-1 (S1P1) gene; conditions: for inhibition at 10 µM: test compound at 10 μM, inhibition of [33P]-S1P binding to the membrane fraction of HEK-293 cells expressing human Edg-1 (S1P1); for IC50: [33P]-S1P 0.1 nM, human Edg-1 (S1P1) HEK-293 membrane fraction, 1 h at 30° C., read-out: IC50 (concentration at which binding in the absence of the test compound was inhibited by 50%)
T1 construct: expressed in transfected cells; host or cells: HEK-293
T1 sequence (P21453 whole entry): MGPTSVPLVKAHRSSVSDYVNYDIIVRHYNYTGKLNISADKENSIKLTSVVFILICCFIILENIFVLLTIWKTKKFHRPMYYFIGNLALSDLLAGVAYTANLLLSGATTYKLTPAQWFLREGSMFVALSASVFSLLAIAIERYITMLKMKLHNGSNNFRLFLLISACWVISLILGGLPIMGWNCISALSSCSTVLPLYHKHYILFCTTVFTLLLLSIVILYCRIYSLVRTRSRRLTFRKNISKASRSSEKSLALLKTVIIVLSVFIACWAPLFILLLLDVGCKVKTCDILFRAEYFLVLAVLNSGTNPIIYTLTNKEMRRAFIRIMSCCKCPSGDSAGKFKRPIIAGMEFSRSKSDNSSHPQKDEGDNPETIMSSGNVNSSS
Procedure, shortened: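 Membranes from S1P1-transfected HEK-293 cells incubated 1 h at 30° C in pH 7.4 Tris buffer with fatty acid-free BSA, 0.1 nM [33P]-S1P and test compound (0.1% DMSO). Filter-bound radioactivity was counted; inhibition corrected for binding to untransfected-cell membranes, and IC50 derived from concentration series.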

inhibition at 10 µM (human Edg-1 (S1P1)) [%]	melting point [°C]	IC50 (human Edg-1 (S1P1)) [nM]	Compound
104	192 to 193	–	CCn1c(Oc2ccc3ccncc3c2)nnc1[C@@H](C)NS(=O)(=O)c1ccc(Cl)c(Cl)c1 [Compound 54]
99.7	181 to 183	–	Cc1ccc(Oc2nnc([C@@H](C)NS(=O)(=O)c3ccc(Cl)c(Cl)c3)n2C)cc1 [Compound 58]
94.3	169.5 to 170.5	–	CCCn1c(Oc2ccc(C)cc2)nnc1[C@@H](C)NS(=O)(=O)c1ccc(Cl)c(Cl)c1 [Compound 59]
98.9	192.5 to 195	–	Cc1ccc(Oc2nnc([C@@H](C)NS(=O)(=O)c3ccc(Cl)c(Cl)c3)n2C(C)C)cc1 [Compound 60]
83.5	186 to 188.5	–	CCn1c(Oc2ccc(C)cc2)nnc1[C@H](C)NS(=O)(=O)c1ccc(Cl)c(Cl)c1 [Compound 62]
105	216.5 to 217.5	–	CCn1c(Oc2ccc3[nH]ccc3c2)nnc1[C@@H](C)NS(=O)(=O)c1ccc(Cl)c(Cl)c1 [Compound 63]
101	223 to 224	≤ 35	CCn1c(Oc2ccc3cc[nH]c3c2)nnc1[C@@H](C)NS(=O)(=O)c1ccc(Cl)c(Cl)c1 [Compound 64]
105	201 to 202	–	CCn1c(Oc2ccc3[nH]c(C)cc3c2)nnc1[C@@H](C)NS(=O)(=O)c1ccc(Cl)c(Cl)c1 [Compound 65]
93.4	183 to 190	–	CCn1c(Oc2cc(C)ccn2)nnc1[C@@H](C)NS(=O)(=O)c1ccc(Cl)c(Cl)c1 [Compound 66]
95.5	182 to 188	–	CCn1c(Oc2ccc(C)cn2)nnc1[C@@H](C)NS(=O)(=O)c1ccc(Cl)c(Cl)c1 [Compound 67]
101	212 to 223	–	CCn1c(Oc2ccc3c(c2)CCC(=O)N3)nnc1[C@@H](C)NS(=O)(=O)c1ccc(Cl)c(Cl)c1 [Compound 68]
103	119 to 120.5	≤ 35	CCn1c(Oc2cccc(OC)c2)nnc1[C@@H](C)NS(=O)(=O)c1ccc(Cl)c(Cl)c1 [Compound 69]
96.5	144 to 146	≤ 10	CCN(CC)c1cccc(Oc2nnc([C@@H](C)NS(=O)(=O)c3ccc(Cl)c(Cl)c3)n2CC)c1 [Compound 70]
99.3	126 to 135	–	CCn1c(Oc2cccc(C)n2)nnc1[C@@H](C)NS(=O)(=O)c1ccc(Cl)c(Cl)c1 [Compound 71]
99	198 to 200.5	–	CCn1c(Oc2ccc3cccnc3c2)nnc1[C@@H](C)NS(=O)(=O)c1ccc(Cl)c(Cl)c1 [Compound 72]
103	185 to 187	2.2	CCn1c(Oc2cccc(N3CCCCC3)c2)nnc1[C@@H](C)NS(=O)(=O)c1ccc(Cl)c(Cl)c1 [Compound 73]
105	218.5 to 227	15	CCn1c(Oc2ccc3c(c2)NC(=O)CC3)nnc1[C@@H](C)NS(=O)(=O)c1ccc(Cl)c(Cl)c1 [Compound 74]
95	177 to 179	≤ 10	CCn1c(Oc2cccc(N3CCC3)c2)nnc1[C@@H](C)NS(=O)(=O)c1ccc(Cl)c(Cl)c1 [Compound 75]
99.2	151.5 to 153.5	≤ 35	CCn1c(Oc2cccc(N3C[C@@H](C)O[C@@H](C)C3)c2)nnc1[C@@H](C)NS(=O)(=O)c1ccc(Cl)c(Cl)c1 [Compound 76]
99.7	123 to 127	–	CCn1c(Oc2cc(C(F)(F)F)n(C)n2)nnc1[C@@H](C)NS(=O)(=O)c1ccc(Cl)c(Cl)c1 [Compound 77]
90.7	178 to 179	–	CCn1c(Oc2ccc3ncccc3c2)nnc1[C@@H](C)NS(=O)(=O)c1ccc(Cl)c(Cl)c1 [Compound 78]
104	190 to 195	–	CCn1c(Oc2cccc(N3CCCC3)c2)nnc1[C@@H](C)NS(=O)(=O)c1ccc(Cl)c(Cl)c1 [Compound 79]

inhibition at 10 µM (human Edg-1 (S1P1)) [%]	melting point [°C]	IC50 (human Edg-1 (S1P1)) [nM]	Compound
87.6	164 to 165	–	CCn1c(Oc2cc(C)nc(C)c2)nnc1[C@@H](C)NS(=O)(=O)c1ccc(Cl)c(Cl)c1 [Compound 80]
93.2	160 to 165	–	CCn1c(Oc2ccc3c(c2)N=S=N3)nnc1[C@@H](C)NS(=O)(=O)c1ccc(Cl)c(Cl)c1 [Compound 81]
101	142 to 145	–	CCn1c(Oc2cccc(N)c2)nnc1[C@@H](C)NS(=O)(=O)c1ccc(Cl)c(Cl)c1 [Compound 82, N-[(R)-1-[5-(3-Amino-phenoxy)-4-ethyl-4H-[1,2,4]triazol-3-yl]-ethyl]-3,4-dichlorobenzenesulfonamide]
101	170 to 173	8.1	CCn1c(Oc2cccc(N3CCN(CCN(C)C)CC3)c2)nnc1[C@@H](C)NS(=O)(=O)c1ccc(Cl)c(Cl)c1 [Compound 83]
100	160 to 165	–	CCn1c(Oc2cccc(NC(C)=O)c2)nnc1[C@@H](C)NS(=O)(=O)c1ccc(Cl)c(Cl)c1 [Compound 84]
100	133 to 134	–	CCn1c(Oc2cccc(-n3ccnc3)c2)nnc1[C@@H](C)NS(=O)(=O)c1ccc(Cl)c(Cl)c1 [Compound 85]
107	176 to 177	–	CCn1c(Oc2cccc(-n3cccc3)c2)nnc1[C@@H](C)NS(=O)(=O)c1ccc(Cl)c(Cl)c1 [Compound 86, 3,4-Dichloro-N-[(R)-1-[4-ethyl-5-(3-pyrrol-1-phenoxy)-4H-[1,2,4]triazol-3-yl]-ethyl]-benzenesulfonamide]
90.3	101 to 103	–	CCn1c(Oc2cccc(-n3cnnc3)c2)nnc1[C@@H](C)NS(=O)(=O)c1ccc(Cl)c(Cl)c1 [Compound 89]
99	168 to 170	–	CCn1c(Oc2cccc(NC=O)c2)nnc1[C@@H](C)NS(=O)(=O)c1ccc(Cl)c(Cl)c1 [Compound 90, 3,4-Dichloro-N-[(R)-1-[4-ethyl-5-(3-formylamino-phenoxy)-4H-[1,2,4]triazol-3-yl]-ethyl]-benzenesulfonamide]
90.6	137 to 138	–	CCn1c(Oc2cccc(NC(N)=O)c2)nnc1[C@@H](C)NS(=O)(=O)c1ccc(Cl)c(Cl)c1 [Compound 91, 3,4-Dichloro-N-[(R)-1-[4-ethyl-5-(3-ureido-phenoxy)-4H-[1,2,4]triazol-3-yl]-ethyl]-benzenesulfonamide]
92.1	118 to 120	–	CCNC(=O)Nc1cccc(Oc2nnc([C@@H](C)NS(=O)(=O)c3ccc(Cl)c(Cl)c3)n2CC)c1 [Compound 92, 3,4-Dichloro-N-((R)-1-[4-ethyl-5-[3-(3-ethylureido)-phenoxy]-4H-[1,2,4]triazol-3-yl]-ethyl)-benzenesulfonamide]
99.9	167.5 to 169.5	≤ 10	CCn1c(Oc2cccc(N3CCC(O)CC3)c2)nnc1[C@@H](C)NS(=O)(=O)c1ccc(Cl)c(Cl)c1 [Compound 93, 3,4-Dichloro-N-((R)-1-[4-ethyl-5-[3-(4-hydroxy-piperidin-1-yl)-phenoxy]-4H-[1,2,4]triazol-3-yl]-ethyl)-benzenesulfonamide]
106	190 to 192	≤ 10	CCn1c(Oc2cccc(N3CCN(C(C)C)CC3)c2)nnc1[C@@H](C)NS(=O)(=O)c1ccc(Cl)c(Cl)c1 [Compound 94]
92.4	205 to 208.5	–	CCn1c(Oc2cc(C)cc(C)n2)nnc1[C@@H](C)NS(=O)(=O)c1ccc(Cl)c(Cl)c1 [Compound 95]
78.7	191 to 194	–	CCn1c(Oc2cc3nc(C)cc(C)n3n2)nnc1[C@@H](C)NS(=O)(=O)c1ccc(Cl)c(Cl)c1 [Compound 96]
93	158 to 159	–	CCn1c(Oc2cccc(NC(=O)N(C)C)c2)nnc1[C@@H](C)NS(=O)(=O)c1ccc(Cl)c(Cl)c1 [Compound 97, 3,4-Dichloro-N-((R)-1-[5-[3-(3,3-dimethylureido)-phenoxy]-4-ethyl-4H-[1,2,4]triazol-3-yl]-ethyl)-benzenesulfonamide]
100	143 to 144	–	CCn1c(Oc2cccc(NC(=O)N3CCOCC3)c2)nnc1[C@@H](C)NS(=O)(=O)c1ccc(Cl)c(Cl)c1 [Compound 98]
102	103 to 105.5	25	CCn1c(Oc2cc(C(C)C)n(C)n2)nnc1[C@@H](C)NS(=O)(=O)c1ccc(Cl)c(Cl)c1 [Compound 99]
101	142 to 143	≤ 35	CCn1c(Oc2cccc(NS(=O)(=O)N(C)C)c2)nnc1[C@@H](C)NS(=O)(=O)c1ccc(Cl)c(Cl)c1 [Compound 101]
104	117 to 118	≤ 35	CCn1c(Oc2cccc(NS(C)(=O)=O)c2)nnc1[C@@H](C)NS(=O)(=O)c1ccc(Cl)c(Cl)c1 [Compound 102, 3,4-Dichloro-N-[(R)-1-[4-ethyl-5-(3-methanesulfonylamino-phenoxy)-4H-[1,2,4]triazol-3-yl]-ethyl]-benzenesulfonamide]
91.2	146.5 to 147.5	–	CCn1c(Oc2ccc(F)cc2)nnc1[C@@H](C)NS(=O)(=O)c1ccc(F)c(Cl)c1 [Compound 103]
